From patent US11814366B2, “Antiviral compounds and use thereof” (UNIVERSITA DEGLI STUDI DI SIENA, priority 2018, dated 2023)

What was measured:
HSV-2 = assay: Post treatment assay, HSV-2 infected Vero cells; assay type: cell-based, Herpes 2 virus (HSV-2); conditions: Human alphaherpesvirus 2, Vero, read-out: antiviral activity value when added post-infection
Protocol: Supernatants and cells were harvested and cell free virus infectivity titers were determined in duplicate by plaque assay in Vero cell monolayers. Percent inhibition was determined by comparing the titer measured in the presence of the compounds to that measured in untreated wells.

in vitro = conditions: African green monkey
RSV = RSV inhibition assay on Hep-2 cells; assay type: cell-based, RSV strain A2; conditions: human respiratory syncytial virus
Protocol: Hep-2 cells were pre-plated in a 96-well plate. The following day concentrations of compounds ranging from 50 μM to 0.0001 μM in DMSO were mixed with RSV (MOI 0.005 pfu/cell) and incubated for 1 hour at 37° C. The mixtures were subsequently added to the cells, which were then incubated at 37° C. for 3 h; monolayers were then washed and overlaid with 1.2% methylcellulose medium. 72 hours later cells were fixed and subjected to specific immunostaining using an RSV monoclonal antibody (Ab35958; Abeam, Cambridge, United Kingdom) in order to visualize syncytia. EC50 were calculated by comparing numbers of syncytia in treated and untreated wells. The effective concentration producing 50% reduction in plaque formation (EC50) was determined using Prism software. The selectivity index (SI) was calculated by dividing the CC50 by the EC50 value.

O=C1NC(=S)N(CCc2ccccc2)C(=O)/C1=C\c1ccc(-c2ccc(C(=O)O)c(O)c2)[nH]1 [Compound 15b, (Z)-4-(5-((4,6-dioxo-1-phenethyl-2-thioxotetrahydropyrimidin-5(2H)-ylidene)methyl)-1H-pyrrol-2-yl)-2-hydroxybenzoic Acid]
EC50 (HSV-2): 0.775 µM | CC50 (in vitro; CC50, conditions of the HSV-1 assay): > 300 µM | CC50 (in vitro; CC50, conditions of the HSV-2 Acy R assay): > 300 µM | CC50 (in vitro; CC50, conditions of the HSV-2 assay (Table 2)): > 300 µM | CC50 (in vitro; CC50, conditions of the ZIKAV assay (Table 3)): > 111 µM | EC50 (RSV): 0.315 µM | EC90 (RSV): 1.51 µM
